Results published in patent publication US8252807B2, “Methods of inhibiting the interaction between S100 and the receptor for advanced glycation end-products” (Board of Regents, The University of Texas System, priority 2007, dated 2012).

How the values were obtained:
Panc-1 orthotopic tumors = assay: Tumor growth and metastasis in scid mice, Panc-1 orthotopic; assay type: in vivo; conditions: for effect on liver or lung metastasis: Panc-1
Description: FIGS. 6A-6F show the effect of cromolyn on Panc-1 tumor growth and metastasis in vivo. Panc-1 cells stably expressing the firefly luciferase gene were injected orthotopically into 4-week-old male CB 17 scid mice. […] Mice were divided into four groups of five mice each with an equivalent mean tumor size between groups. […] One group was treated with water (control), one group received gemcitabine bi-weekly (125 mg per kg body weight bi-weekly by intraperitoneal injection), one group was administered cromolyn daily (5 mg per kg body weight daily by intraperitoneal injection), and the final group was given the combination of cromolyn and gemcitabine. All groups were treated for six weeks. Bioluminescent imaging was done weekly to assess tumor growth. […] Means and 95% confidence intervals from two independent experiments are shown (n=20). Two-tailed two-sample (unpaired) Student's t-tests were used to determine P values.
The anti-tumorigenic capability of the drug cromolyn was assessed in 4-week-old male CB 17 scid mice (n=20) carrying orthopic tumors of BxPC-3, MPanc96, and Panc-1 cells stably expressing a Lenti-luc reporter. All mouse experiments were reviewed and approved by the Institutional Animal Care and Use Committee of UT MD Anderson Cancer Center. All mice were maintained in a sterile environment. Cages, bedding, food, and water were all autoclaved. All mice were maintained on a daily 12-hour light/12-hour dark cycle, according to the institutional animal welfare guidelines.
BxPC-3, MPanc96, and Panc-1 cells carrying the Lenti-luc reporter gene were grown to 80% confluence, harvested by incubation with trypsin-EDTA, washed twice in PBS, and resuspended to a final concentration of 4.0×10^6 cells/mL. Each mouse (n=20 mice per cell line) was injected (into the pancreas) with cell suspensions (50 μL). Bioluminescent imaging to determine tumor volume was performed 1 week after injection because the tumors became established within this amount of time. This initial tumor volume was used to divide the mice into four groups of five mice each, such that the mean tumor size was equal between groups (FIGS. 4A, 5A, and 6A). To allow enough time to observe differences among treatment groups, the mice were followed for the next 5 weeks. One group of mice was then treated biweekly with a sub-maximal concentration of gemcitabine (125 mg per kg body weight by i.p. injection). A second group was treated with a daily injection of cromolyn (5 mg per kg body weight by i.p. injection). A third group was treated with both bi-weekly gemcitabine and daily cromolyn. The control group was treated daily with vehicle. Treatments were continued for 5 weeks, and the effects on the tumor burden and metastasis were analyzed by weekly bioluminescence imaging (FIGS. 4B, 5B, and 6B). At the end of the experiment the mice were anesthetized with 1.5% isofluorane/air mixture and killed by cervical dislocation.
Bioluminescence imaging was conducted using a cryogenically cooled IVIS 100 imaging system coupled to a data acquisition computer running Living Image software (Xenogen Corp., Alameda, Calif.). Before imaging, mice were placed in an acrylic chamber, anesthetized with 1.5% isofluorane/air mixture, and injected i.p. with 15 mg/mL of luciferin potassium salt in PBS at a dose of 150 mg per kg body weight. A digital grey scale image of each mouse was acquired, followed by acquisition and overlay of a pseudocolor image representing the spatial distribution of detected photons emerging from active luciferase within the mouse. Tumor volume was quantified as the sum of all detected photons within the region of the tumor per second. At the end of experiment, the mice were killed, and tumors were surgically removed and weighed. After the primary tumors were removed, cancer cell dissemination and metastasis was visualized using IVIS imaging, and metastatic colonies were counted. […]

[1] = tested on: MPanc-96 orthotopic tumors; assay: Tumor growth and metastasis in scid mice, MPanc-96 orthotopic; assay type: in vivo; conditions: for liver metastasis, difference versus control / lung metastasis, difference versus control / tumor burden, difference versus control / lung metastasis, mean / liver metastasis, mean / tumor burden (primary tumor volume by bioluminescence), mean: MPanc-96; for lung metastasis, mean: control mean=5.9×10^7; for liver metastasis, mean: control mean=9.4×10^8; for tumor burden (primary tumor volume by bioluminescence), mean: end of six weeks, cromolyn 5 mg per kg daily i.p., gemcitabine 125 mg per kg bi-weekly i.p., control mean=1.1×10^10
Description: FIGS. 5A-5F show the effect of cromolyn on MPanc-96 tumor growth and metastasis in vivo. MPanc-96 cells stably expressing the firefly luciferase gene were injected orthotopically into 4-week-old male CB 17 scid mice. […] Mice were divided into four groups of five mice each with an equivalent mean tumor size between groups. […] One group was treated with water (control), one group received gemcitabine bi-weekly (125 mg per kg body weight bi-weekly by intraperitoneal injection), one group was administered cromolyn daily (5 mg per kg body weight daily by intraperitoneal injection), and the final group was given the combination of cromolyn and gemcitabine. All groups were treated for six weeks. Bioluminescent imaging was done weekly to assess tumor growth. […] Means and 95% confidence intervals from two independent experiments are shown (n=20). Two-tailed two-sample (unpaired) Student's t-tests were used to determine P values. The anti-tumorigenic capability of the drug cromolyn was assessed in 4-week-old male CB 17 scid mice (n=20) carrying orthopic tumors of BxPC-3, MPanc96, and Panc-1 cells stably expressing a Lenti-luc reporter. All mouse experiments were reviewed and approved by the Institutional Animal Care and Use Committee of UT MD Anderson Cancer Center. All mice were maintained in a sterile environment. Cages, bedding, food, and water were all autoclaved. All mice were maintained on a daily 12-hour light/12-hour dark cycle, according to the institutional animal welfare guidelines. BxPC-3, MPanc96, and Panc-1 cells carrying the Lenti-luc reporter gene were grown to 80% confluence, harvested by incubation with trypsin-EDTA, washed twice in PBS, and resuspended to a final concentration of 4.0×10^6 cells/mL. Each mouse (n=20 mice per cell line) was injected (into the pancreas) with cell suspensions (50 μL). […] This initial tumor volume was used to divide the mice into four groups of five mice each, such that the mean tumor size was equal between groups (FIGS. 4A, 5A, and 6A). To allow enough time to observe differences among treatment groups, the mice were followed for the next 5 weeks. One group of mice was then treated biweekly with a sub-maximal concentration of gemcitabine (125 mg per kg body weight by i.p. injection). A second group was treated with a daily injection of cromolyn (5 mg per kg body weight by i.p. injection). A third group was treated with both bi-weekly gemcitabine and daily cromolyn. The control group was treated daily with vehicle. Treatments were continued for 5 weeks, and the effects on the tumor burden and metastasis were analyzed by weekly bioluminescence imaging (FIGS. 4B, 5B, and 6B). At the end of the experiment the mice were anesthetized with 1.5% isofluorane/air mixture and killed by cervical dislocation. […] Before imaging, mice were placed in an acrylic chamber, anesthetized with 1.5% isofluorane/air mixture, and injected i.p. with 15 mg/mL of luciferin potassium salt in PBS at a dose of 150 mg per kg body weight. A digital grey scale image of each mouse was acquired, followed by acquisition and overlay of a pseudocolor image representing the spatial distribution of detected photons emerging from active luciferase within the mouse. Tumor volume was quantified as the sum of all detected photons within the region of the tumor per second. At the end of experiment, the mice were killed, and tumors were surgically removed and weighed. After the primary tumors were removed, cancer cell dissemination and metastasis was visualized using IVIS imaging, and metastatic colonies were counted. Subsequently, tissues were fixed with formaldehyde, and histology was used to verify the accuracy of the bioluminescence data.

SW480 cells = assay: SW480 colon cancer cell invasion (matrigel transwell); assay type: cell-based; conditions: cromolyn 10 μM and 100 μM, 24 hours
Description: SW480 cells were plated on top of a layer of matrigel in a Boyden type chamber (transwell). Media containing 5% FBS was placed in the lower well and the cells were allowed to invade the matrigel layer for 24 hours in the presence of different concentrations of cromolyn.

| SMILES | effect on liver or lung metastasis (Panc-1 orthotopic tumors) | body weight, difference versus control (Panc-1 orthotopic tumors; Panc-1 model) [g] | body weight at the end of the experiment, mean (Panc-1 orthotopic tumors; Panc-1 model, control mean=32.0 g) [g] | liver metastasis, difference versus control [1] | lung metastasis, difference versus control [1] | tumor burden, difference versus control [1] | lung metastasis, mean [1] | liver metastasis, mean [1] | tumor burden (primary tumor volume by bioluminescence), mean [1] | effect on body weight (Panc-1 orthotopic tumors; Panc-1 model, up to 6 weeks) | tumor development in Panc-1 model (Panc-1 orthotopic tumors; cromolyn 5 mg per kg daily i.p., alone or with gemcitabine) | invasiveness of SW480 cells (SW480 cells) | effect on body weight ([1]; MPanc-96 model, up to 6 weeks) |
| --- | --- | --- | --- | --- | --- | --- | --- | --- | --- | --- | --- | --- | --- |
| Nc1ccn([C@@H]2O[C@H](CO)[C@@H](O)C2(F)F)c(=O)n1 [gemcitabine] | neither cromolyn nor gemcitabine nor the combination reduced liver or lung metastasis | 4.8 | 27.2 | 8.1×10^8 photons/sec | 5.4×10^7 photons/sec | 6.9×10^9 photons/sec | 5.0×10^6 photons/sec | 1.2×10^8 photons/sec | 4.1×10^9 photons/sec | – | – | – | – |
| O=C(O)c1cc(=O)c2c(OCC(O)COc3cccc4oc(C(=O)O)cc(=O)c34)cccc2o1 [cromolyn, disodium 1,3-bis[(2′-carboxylatochromon-5′-yl)oxy]-2-hydroxypropane] | neither cromolyn nor gemcitabine nor the combination reduced liver or lung metastasis | – | – | 7.2×10^8 photons/sec | 5.6×10^7 photons/sec | 6.2×10^9 photons/sec | 3.2×10^6 photons/sec | 2.2×10^8 photons/sec | 4.8×10^9 photons/sec | no effect on body weight | did not reduce tumor development or increase the effectiveness of gemcitabine | reduced the invasiveness | no effect on body weight |
